Assay results as given in patent publication US20140357512A1, “HISTONE DEACETYLASE (HDAC) BIOMARKERS IN MULTIPLE MYELOMA” (priority 2013, published 2014).

System: human myeloma cell line MM.1S
Assay: SILAC acetylated-lysine peptide profiling, HDAC inhibitor vs DMSO (light/heavy ratio)
Format: cell-based
Excerpt: An embodiment of the invention comprises utilizing the SILAC method in order to quantitate changes in protein expression between two or more populations of cells. The SILAC method is a technique based on mass spectrometry that detects differences in protein abundance among samples using non-radioactive isotopic labeling. The SILAC method is known in the art, and described in detail in Ong et al., “Stable Isotope Labeling by Amino Acids in Cell Culture, SILAC, as a Simple and Accurate Approach to Expression Proteomics”, Molecular & Cellular Proteomics, vol. 1, pp. 376-386 (2002), which is incorporated herein by reference in its entirety.
Briefly, the SILAC method involves growing two populations of cells in cell culture. The first population of cells is grown in growth media containing normal amino acids (“normal media”). The second population of cells is grown in media lacking a standard essential amino acid (such as lysine), but is then supplemented with a non-radioactive, isotopically labeled form of that essential amino acid (such as lysine labeled with ^13C atoms, rather than normal ^12C atoms), which is called “heavy media”. When the two populations of cells are each growing in the medium, they incorporate the amino acids into all of their proteins. The growth of cells maintained in the heavy media is no different from that in normal media. All peptides containing the heavy amino acids are heavier than their normal counterparts. The cells from each of the two populations of cells are lysed. The lysates from each of the two cell populations are then combined. The combined cell lysates are then analyzed by mass spectrometry. Pairs of chemically identical peptides of different stable isotope composition can be differentiated in a mass spectrometer due to their difference in mass. The ratio of peak intensities in the mass spectrum for such peptide pairs reflects the abundance ratio for the two proteins.
This example describes SILAC studies that were performed to compare the effects of three different HDAC inhibitors (Compound A, Compound B, and tubastatin A) to a control on a human multiple myeloma cell line. The HDAC inhibitors were also compared amongst themselves to determine differences in their effects.
A human myeloma cell line MM.1S was grown using either ^12C (light) or ^13C (heavy) lysine containing culture medium. The “heavy” cells were treated with DMSO as the control, and the “light” cells were treated with a single HDAC inhibitor at 37° C. for 6 hours. The heavy and light cells were lysed, and the lysates were mixed in 1:1 ratio and digested with the protease trypsin. The acetylated lysine containing peptides (due to the action of the HDAC inhibitor) in the digested peptide pool were captured by a non-specific anti-acetylated lysine antibody cocktail (the antibodies identify both light and heavy acetylated peptides), and subjected to mass spectrometry analysis in order to identify thousands of individual peptides.
Thousands of peptides were identified in pairs (^12C and ^13C) due to their known mass differences. The amino acid sequence and quantitative ratio (Light/Heavy) of a given peptide in two differentially treated cell lysates were then determined and annotated with their possible protein (gene) sources.
As stated above, three HDAC inhibitors (Compound A, Compound B, and Tubastatin A) were used. Thus, the SILAC method was performed three times, with a different HDAC inhibitor compared to a control each time. Accordingly, there are three pairs of quantitative data in the table below, i.e., Compound A:DMSO, Compound B:DMSO, and Tubastatin A:DMSO. A cut-off of 1.30 fold of change (increase or decrease) was then used to determine “changed” or “+” in the table, and any peptides with a fold of change less than 1.3 fold were determined to be “unchanged” or “0” in the table. Those peptides that were not identified were marked as “NA” in the table. […]

## O=C(CCCCCCNC(=O)c1cnc(N(c2ccccc2)c2ccccc2)nc1)NO [Compound A, 2-(diphenylamino)-N-(7-(hydroxyamino)-7-oxoheptyl)pyrimidine-5-carboxamide]
Isoform 1 of Heterogeneous nuclear ribonucleoprotein H3 [76], gene HNRNPH3, inhibitor:DMSO
  light to heavy ratio (L/H ratio) of acetylated peptide EIAENALGK(ac)HK (SEQ ID NO: 617): 0.47 log 2
Isoform 1 of Histone-lysine N-methyltransferase MLL3 [758], gene MLL3, inhibitor:DMSO
  light to heavy ratio (L/H ratio) of acetylated peptide DVSYQGGK(ac)SIK (SEQ ID NO: 571): 0.42 log 2
Isoform 1 of Histone-lysine N-methyltransferase MLL3 [2809], gene MLL3, inhibitor:DMSO
  light to heavy ratio (L/H ratio) of acetylated peptide TLVLSDK(ac)HSPQK (SEQ ID NO: 523): −0.46 log 2
Isoform 1 of Hydroxyacyl-coenzyme A dehydrogenase mitochondrial [127], gene HADH, inhibitor:DMSO
  light to heavy ratio (L/H ratio) of acetylated peptide VK(ac)NELFK (SEQ ID NO: 565): 0.41 log 2
Isoform 1 of Hydroxyacyl-coenzyme A dehydrogenase mitochondrial [301], HADH, drug:DMSO
  light to heavy ratio (L/H ratio) of acetylated peptide LVAENK(ac)FGK (SEQ ID NO: 296): 0.74 log 2
Isoform 1 of L-lactate dehydrogenase A chain [318], LDHA, drug:DMSO
  light to heavy ratio (L/H ratio) of acetylated peptide K(ac)[…] (SEQ ID NO: 316): 1.00 log 2
Isoform 1 of Myosin-9 [435], MYH9, drug:DMSO
  light to heavy ratio (L/H ratio) of acetylated peptide INK(ac)ALDK (SEQ ID NO: 344): 0.00 log 2
Isoform 1 of Myosin-9 [439], gene MYH9, drug:DMSO
  light to heavy ratio (L/H ratio), log 2 scale, acetylated peptide INKALDK(ac)TK (SEQ ID NO: 802): 1.00
Isoform 1 of N-alpha-acetyltransferase 50 NatE catalytic subunit [37], gene NAA50, inhibitor:DMSO
  light to heavy ratio (L/H ratio) of acetylated peptide FYK(ac)[…] (SEQ ID NO: 596): 0.45 log 2
Isoform 1 of NADH-cytochrome b5 reductase 3 [115], gene CYB5R3, drug:DMSO
  light to heavy ratio (L/H ratio), log 2 scale, acetylated peptide VYFK(ac)DTHPK (SEQ ID NO: 758): 0.90
Isoform 1 of Peripherin [288], gene PRPH, drug:DMSO
  light to heavy ratio (L/H ratio), log 2 scale, acetylated peptide […](ac)SK (SEQ ID NO: 767): 0.94
Isoform 1 of Phosphatidylinositol-345-trisphosphate 5-phosphatase 1 [371], gene INPP5D, LOC646743, inhibitor:DMSO
  light to heavy ratio (L/H ratio) of acetylated peptide K(ac)EYVFADSK (SEQ ID NO: 616): 0.47 log 2
Isoform 1 of Polypyrimidine tract-binding protein 1 [368], gene PTBP1, inhibitor:DMSO
  light to heavy ratio (L/H ratio) of acetylated peptide VK(ac)ILFNK (SEQ ID NO: 561): 0.40 log 2
Isoform 1 of Protein FAM98A [297], gene FAM98A, inhibitor:DMSO
  light to heavy ratio (L/H ratio) of acetylated peptide TACAINK(ac)VLMGR (SEQ ID NO: 584): 0.43 log 2
Isoform 1 of Protein MB21D1 [414], gene MB21D1, inhibitor:DMSO
  light to heavy ratio (L/H ratio) of acetylated peptide LMK(ac)YLLEQLK (SEQ ID NO: 585): 0.43 log 2
Isoform 1 of Protein SET [154], SET, drug:DMSO
  light to heavy ratio (L/H ratio) of acetylated peptide VLSK(ac)[…] (SEQ ID NO: 294): 0.69 log 2
Isoform 1 of RNA-binding protein with serine-rich domain 1 [218], RNPS1, drug:DMSO
  light to heavy ratio (L/H ratio) of acetylated peptide […](ac)ALK (SEQ ID NO: 349): 0.00 log 2
Isoform 1 of Signal recognition particle 9 kDa protein [52], gene SRP9, drug:DMSO
  light to heavy ratio (L/H ratio), log 2 scale, acetylated peptide […](ac)TDQAQDVK (SEQ ID NO: 765): 0.93
Isoform 1 of Signal transducer and activator of transcription 2 [158:161], gene STAT2, drug:DMSO
  light to heavy ratio (L/H ratio), log 2 scale, acetylated peptide AMMEK(ac)LVK(ac)SISQLK (SEQ ID NO: 814): 1.00
Isoform 1 of U5 small nuclear ribonucleoprotein 200 kDa helicase [745], gene SNRNP200, inhibitor:DMSO
  light to heavy ratio (L/H ratio) of acetylated peptide DMCLEK(ac)DTLGLFLR (SEQ ID NO: 530): −0.41 log 2
Isoform 1 of UDP-N-acetylglucosamine--dolichyl-phosphate N-acetylglucosaminephosphotransferase [320], DPAGT1, drug:DMSO
  light to heavy ratio (L/H ratio) of acetylated peptide LEMSYSK(ac)FK (SEQ ID NO: 304): 1.00 log 2
Isoform 1 of UDP-glucose:glycoprotein glucosyltransferase 1 [176], gene UGGT1, inhibitor:DMSO
  light to heavy ratio (L/H ratio) of acetylated peptide PK(ac)PLLFK (SEQ ID NO: 544): 0.39 log 2
Isoform 2 of Double-stranded RNA-specific adenosine deaminase [1013], ADAR, drug:DMSO
  light to heavy ratio (L/H ratio) of acetylated peptide TMSCSDK(ac)ILR (SEQ ID NO: 323): 0.00 log 2
Isoform 2 of Fibronectin type-III domain-containing protein 3A [507], FNDC3A, drug:DMSO
  light to heavy ratio (L/H ratio) of acetylated peptide […](ac)[…] (SEQ ID NO: 336): 0.00 log 2
Isoform 2 of Heat shock protein HSP 90-alpha [565], gene HSP90AA1, drug:DMSO
  light to heavy ratio (L/H ratio), log 2 scale, acetylated peptide FYEQFSK(ac)NIK (SEQ ID NO: 799): 1.00
Isoform 2 of Inhibitor of growth protein 4 [145:147], gene ING4, inhibitor:DMSO
  light to heavy ratio (L/H ratio) of acetylated peptide SK(ac)GK(ac)NSDEEAPK (SEQ ID NO: 615): 0.47 log 2
Isoform 2 of Myosin-VI [646], gene MYO6, inhibitor:DMSO
  light to heavy ratio (L/H ratio) of acetylated peptide LSFISVGNK(ac)FK (SEQ ID NO: 521): −0.49 log 2
Isoform 2 of Neutral alpha-glucosidase AB [242], gene GANAB, inhibitor:DMSO
  light to heavy ratio (L/H ratio) of acetylated peptide AEK(ac)[…] (SEQ ID NO: 503): −0.71 log 2
Isoform 2 of Nipped-B-like protein [1000], gene NIPBL, inhibitor:DMSO
  light to heavy ratio (L/H ratio) of acetylated peptide GAK(ac)PVVVLQK (SEQ ID NO: 611): 0.47 log 2
Isoform 2 of Nuclear factor related to kappa-B-binding protein [1262], gene NFRKB, inhibitor:DMSO
  light to heavy ratio (L/H ratio) of acetylated peptide LIAGNK(ac)[…] (SEQ ID NO: 512): −0.58 log 2
Isoform 2 of Septin-7 [207], gene, inhibitor:DMSO
  light to heavy ratio (L/H ratio) of acetylated peptide […](ac)K (SEQ ID NO: 626): 0.49 log 2
Isoform 2 of Spliceosome RNA helicase DDX39B [349], SNORD84, DDX39B, drug:DMSO
  light to heavy ratio (L/H ratio) of acetylated peptide YQQFK(ac)DFQR (SEQ ID NO: 258): 0.39 log 2
Isoform 2 of Transportin-3 [513], gene TNPO3, inhibitor:DMSO
  light to heavy ratio (L/H ratio) of acetylated peptide GLCEK(ac)PLASAAAK (SEQ ID NO: 536): −0.39 log 2
Isoform 3 of Proline-rich protein 12 [1223], gene PRR12, drug:DMSO
  light to heavy ratio (L/H ratio), log 2 scale, acetylated peptide LEPLK(ac)PLK (SEQ ID NO: 772): 1.00
Isoform 3 of Reticulon-3 [217], gene RTN3, drug:DMSO
  light to heavy ratio (L/H ratio), log 2 scale, acetylated peptide DQTK(ac)SIVEK (SEQ ID NO: 810): 1.00
Isoform 5 of Interleukin enhancer-binding factor 3 [332], gene ILF3, inhibitor:DMSO
  light to heavy ratio (L/H ratio) of acetylated peptide LAAFGQLHK(ac)[…] (SEQ ID NO: 570): 0.41 log 2
